In patent US20260207570A1, “OPTIMIZED DOSING OF LERIGLITAZONE” (MINORYX THERAPEUTICS S.L., priority 2022, published 2026):

B1: human CYP2C8 (Homo sapiens) (protein)
chain: MEPFVVLVLCLSFMLLFSLWRQSCRRRKLPPGPTPLPIIGNMLQIDVKDICKSFTNFSKVYGPVFTVYFGMNPIVVFHGYEAVKEALIDNGEEFSGRGNSPISQRITKGLGIISSNGKRWKEIRRFSLTTLRNFGMGKRSIEDRVQEEAHCLVEELRKTKASPCDPTFILGCAPCNVICSVVFQKRFDYKDQNFLTLMKRFNENFRILNSPWIQVCNNFPLLIDCFPGTHNKVLKNVALTRSYIREKVKEHQASLDVNNPRDFIDCFLIKMEQEKDNQKSEFNIENLVGTVADLFVAGTETTSTTLRYGLLLLLKHPEVTAKVQEEIDHVIGRHRSPCMQDRSHMPYTDAVVHEIQRYSDLVPTGVPHAVTTDTKFRNYLIPKGTTIMALLTSVLHDDKEFPNPNIFDPGHFLDKNGNFKKSDYFMPFSAGKRICAGEGLARMELFLFLTTILQNFNLKSVDDLKNLNTTAVTKGIVSLPPSYQICFIPV
notes: purchased ADMESCOPE, Finland

Key:
[1] = Phase 1 safety and tolerability (treatment-emergent adverse events); assay type: in vivo, human
Method: Study design: A phase 1, randomized, double blind, placebo-controlled, single-center clinical study in 33 male healthy volunteers (HV) (19-54 years, 63.2-95.7 Kg) was conducted with leriglitazone HCl and divided in two parts: a single ascending dose (SAD) with three dose levels (30, 90 and 270 mg) in fasted conditions, followed with two dose levels (90 and 270 mg) in fed conditions; a multiple ascending dose (MAD) with a double-blind, parallel-design with two dose levels (135 and 270 mg) for 8 days and a separate cohort of subjects in an open-label parallel design with two dose levels (135 and 270 mg) including cerebrospinal fluid (CSF) collection on day 8. In the fasted conditions a fasting period of at least 4 hours was required before obtaining plasma samples. The food effect (FE) was assessed by comparing fasted with fed conditions (dosing after a high-fat breakfast per FDA definition with a calculated caloric content of 918 kcal). In the MAD part (fed) the medication was taken before a normal breakfast. Leriglitazone HCl was supplied by ChemConnection and an oral suspension of leriglitazone (20% w/v kleptose, 2% ethanol in 100 mM phosphate buffer pH=7.8) at 6 mg/ml was used in the study. Safety: Safety and tolerability assessments consisted of adverse events (AEs), clinical laboratory, vital signs, 12-lead electrocardiogram (ECG), and physical examination.

[2] = substrate: CC(O)c1ccc(CCOc2ccc(CC3SC(=O)NC3=O)cc2)nc1; test: Metabolism kinetics with recombinant CYP2C8; assay type: in vitro ADME, human
Text: CYP2C8 and CYP3A4 were identified in vitro as the major contributing enzymes of leriglitazone with CYP2C8 mostly responsible for the formation of the main metabolite M3. Kinetic parameters of human CYP2C8 and CYP3A4 mediated metabolism of leriglitazone were studied in in vitro studies using recombinant CYP3A4 and CYP2C8 enzymes (ADMESCOPE, Finland). […] As the disappearance of leriglitazone was very slow especially at high initial concentrations, the accuracy of the fit was not as good as based on M3 formation. […] Thus, it was not possible to fit the kinetic parameters Km and Vmax.

[3] = phase 1, healthy male volunteers
[4] = other: recombinant CYP2C8, based on M3 formation
[5] = other: recombinant CYP2C8, based on leriglitazone depletion

Molecule	clinical laboratory evaluations, vital signs, ECGs and physical examinations ([1]; phase 1, healthy male subjects)	serious AEs [1, 3]	severity of treatment-emergent adverse events [1, 3]	safety and tolerability ([1]; single and multiple doses, healthy male subjects)	Km [2, 4] [µM]	kcat [2, 4] [pmol/min/pmol CYP]	Km [2, 5] [µM]	kcat [2, 5] [pmol/min/pmol CYP]
CC(O)c1ccc(CCOc2ccc(CC3SC(=O)NC3=O)cc2)nc1.Cl (centres unmarked) [leriglitazone HCl, 5-[[4-[2-[5-(1-hydroxyethyl)pyridin-2-yl]ethoxy]phenyl]methyl]-1,3-thiazolidine-2,4-dione hydrochloride]	No clinically significant changes from baseline	no serious AEs reported	of mild severity	safe and well tolerated				
B1					34.0	2.27	13.7	1.60
